This is an account of results in patent publication US20140050779A1, “[…]-2 INHIBITORS AND USES THEREOF” (SINGAPORE HEALTH SERVICES PTE. LTD., priority 2011, published 2014).

The test system of test [1] is TG-5. The test is described as follows: Western blot of TG proteins in mouse scleral fibroblasts after muscarinic agents. Type of test: cell-based. As to conditions: 0.01-10 μM for 5 days.
Test [2] concerns TG-2. The test is described as follows: TG-2 colorimetric microassay (transamidase activity) in lysate of treated mouse scleral fibroblasts. The format is cell-based. As to conditions: murine scleral derived fibroblasts, 0.01-10 μM for 5 days.
Test [3] concerns TG-3. The test is described as follows: Western blot of TG proteins in mouse scleral fibroblasts after muscarinic agents. The format is cell-based. As to conditions: 0.01-10 μM for 5 days.
The subject of test [4] is TG-1. The test is described as above. Type of test: cell-based. As to conditions: 0.01-10 μM for 5 days.
The test system of test [5] is TG-3. The test is described as follows: Western blot of TG proteins in human scleral fibroblasts after muscarinic agents. Type of test: cell-based. As to conditions: 0.01-10 μM for 5 days.
Test [6] has as its target T1, hM1 (Homo sapiens, UniProt P11229).
T1 sequence (P11229 1-460): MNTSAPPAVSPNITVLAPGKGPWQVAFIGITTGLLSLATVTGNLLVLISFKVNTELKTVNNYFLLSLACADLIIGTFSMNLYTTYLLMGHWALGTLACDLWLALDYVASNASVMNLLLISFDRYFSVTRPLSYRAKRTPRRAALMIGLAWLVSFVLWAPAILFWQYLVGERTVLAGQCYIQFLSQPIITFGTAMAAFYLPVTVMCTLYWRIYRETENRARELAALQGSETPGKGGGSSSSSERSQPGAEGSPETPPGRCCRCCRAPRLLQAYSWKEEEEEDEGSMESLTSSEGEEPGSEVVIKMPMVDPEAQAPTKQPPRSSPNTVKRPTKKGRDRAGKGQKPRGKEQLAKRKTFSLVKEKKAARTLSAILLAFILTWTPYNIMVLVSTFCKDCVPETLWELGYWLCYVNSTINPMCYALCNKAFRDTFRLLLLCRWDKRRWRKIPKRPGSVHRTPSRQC
The test is described as follows: himbacine binding to cloned muscarinic receptor subtypes. As to conditions: cloned receptor subtype; data not shown.

Test [7] addresses T2, hM5 (Homo sapiens, UniProt P08912).
T2 sequence (P08912 1-532): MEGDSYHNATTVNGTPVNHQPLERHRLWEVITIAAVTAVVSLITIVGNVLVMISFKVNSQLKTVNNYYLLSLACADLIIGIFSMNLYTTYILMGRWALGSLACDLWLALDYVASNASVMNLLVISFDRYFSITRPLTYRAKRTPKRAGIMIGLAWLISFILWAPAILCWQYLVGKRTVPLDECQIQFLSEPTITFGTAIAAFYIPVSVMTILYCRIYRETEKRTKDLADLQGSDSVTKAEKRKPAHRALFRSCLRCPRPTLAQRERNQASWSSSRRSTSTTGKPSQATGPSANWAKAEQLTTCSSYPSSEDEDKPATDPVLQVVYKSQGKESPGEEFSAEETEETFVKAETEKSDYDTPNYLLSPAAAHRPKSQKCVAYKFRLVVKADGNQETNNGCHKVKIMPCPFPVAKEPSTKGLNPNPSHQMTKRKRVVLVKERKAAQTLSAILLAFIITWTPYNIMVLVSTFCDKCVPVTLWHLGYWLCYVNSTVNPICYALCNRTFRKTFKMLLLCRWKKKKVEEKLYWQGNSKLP
The test is described as above. As to conditions: cloned receptor subtype; data not shown.

`CN1[C@@H]2CC[C@H]1C[C@@H](OC(=O)C(CO)c1ccccc1)C2` (stereo partly shown) [atropine]: the TG-5 protein level entry in test [1] is on record as “reduced”. The “transamidase (cross-linking) activity of TG-2” value in test [2] was “reduction”. For the same compound, the TG-3 protein level result in test [3] and in test [5] was “increased” in each case. The TG-1 protein level entry in test [4] is recorded as “reduced”.
In the case of `C[C@@H]1OC(=O)[C@H]2C[C@H]3CCCC[C@@H]3[C@@H](/C=C/[C@H]3CCC[C@H](C)N3C)[C@@H]12` [himbacine], the results for the equilibrium dissociation constant (Kd) in test [6] and in test [7] were 83 nM and 296 nM, respectively.
